Measurements as given in ChEMBL document CHEMBL3991601, “The target landscape of clinical kinase drugs” (Science, 2017).
Calls of active or inactive are those of the source. For most assays here, no stated cut-off is given here; in the data, actives have a measured Kd and inactives only a lower limit.

Legend:
[1] = biological target: Bone morphogenetic protein receptor type-1B (Homo sapiens, UniProt O00238)
[2] = biological target: Serine/threonine-protein kinase MRCK alpha (Homo sapiens, UniProt Q5VT25)
Sequence of Serine/threonine-protein kinase MRCK alpha (Q5VT25 whole entry): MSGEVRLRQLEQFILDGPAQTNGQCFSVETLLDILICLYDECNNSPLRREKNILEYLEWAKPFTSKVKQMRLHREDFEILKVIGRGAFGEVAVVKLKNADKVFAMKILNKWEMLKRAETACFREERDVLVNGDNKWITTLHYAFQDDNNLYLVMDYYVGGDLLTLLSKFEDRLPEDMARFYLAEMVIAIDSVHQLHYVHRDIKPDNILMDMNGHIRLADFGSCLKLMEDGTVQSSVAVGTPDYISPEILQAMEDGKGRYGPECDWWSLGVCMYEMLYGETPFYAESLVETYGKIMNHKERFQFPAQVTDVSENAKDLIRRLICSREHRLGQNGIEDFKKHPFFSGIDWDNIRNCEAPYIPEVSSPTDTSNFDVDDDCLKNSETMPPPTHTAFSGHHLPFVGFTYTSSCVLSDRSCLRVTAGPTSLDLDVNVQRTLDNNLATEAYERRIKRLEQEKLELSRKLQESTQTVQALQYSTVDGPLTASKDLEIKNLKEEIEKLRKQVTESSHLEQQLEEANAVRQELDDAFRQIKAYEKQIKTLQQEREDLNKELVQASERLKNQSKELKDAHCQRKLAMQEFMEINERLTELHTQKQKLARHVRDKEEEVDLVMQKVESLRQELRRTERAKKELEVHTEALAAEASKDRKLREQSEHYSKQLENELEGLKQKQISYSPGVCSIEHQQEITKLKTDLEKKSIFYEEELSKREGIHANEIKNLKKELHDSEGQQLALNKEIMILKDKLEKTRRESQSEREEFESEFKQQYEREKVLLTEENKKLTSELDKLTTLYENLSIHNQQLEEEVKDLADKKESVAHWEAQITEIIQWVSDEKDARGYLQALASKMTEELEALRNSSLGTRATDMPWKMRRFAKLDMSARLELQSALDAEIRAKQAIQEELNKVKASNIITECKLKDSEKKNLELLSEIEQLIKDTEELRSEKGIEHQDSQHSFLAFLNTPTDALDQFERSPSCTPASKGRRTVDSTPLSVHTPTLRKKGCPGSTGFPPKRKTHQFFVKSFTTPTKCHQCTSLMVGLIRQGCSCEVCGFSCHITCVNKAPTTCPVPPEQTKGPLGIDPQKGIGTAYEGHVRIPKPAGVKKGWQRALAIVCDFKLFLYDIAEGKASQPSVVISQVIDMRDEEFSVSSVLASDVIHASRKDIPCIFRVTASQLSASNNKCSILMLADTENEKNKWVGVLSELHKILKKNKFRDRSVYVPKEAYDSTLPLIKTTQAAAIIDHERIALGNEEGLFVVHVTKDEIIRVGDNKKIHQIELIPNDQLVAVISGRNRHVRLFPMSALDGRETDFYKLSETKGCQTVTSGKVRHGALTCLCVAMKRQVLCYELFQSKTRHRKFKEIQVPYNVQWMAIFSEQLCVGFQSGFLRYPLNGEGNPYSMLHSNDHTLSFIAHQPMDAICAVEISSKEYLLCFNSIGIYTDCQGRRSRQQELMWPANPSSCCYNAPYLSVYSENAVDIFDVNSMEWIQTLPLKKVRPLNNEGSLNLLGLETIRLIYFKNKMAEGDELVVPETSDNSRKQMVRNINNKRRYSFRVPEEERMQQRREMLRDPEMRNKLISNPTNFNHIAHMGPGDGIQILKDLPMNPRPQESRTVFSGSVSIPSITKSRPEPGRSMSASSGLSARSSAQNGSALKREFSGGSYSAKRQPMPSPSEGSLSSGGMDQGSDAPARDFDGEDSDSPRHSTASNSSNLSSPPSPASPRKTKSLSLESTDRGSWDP

[3] = biological target: T1, Inhibitor of nuclear factor kappa-B kinase subunit epsilon (Homo sapiens, UniProt Q14164)
T1 sequence (Q14164 whole entry): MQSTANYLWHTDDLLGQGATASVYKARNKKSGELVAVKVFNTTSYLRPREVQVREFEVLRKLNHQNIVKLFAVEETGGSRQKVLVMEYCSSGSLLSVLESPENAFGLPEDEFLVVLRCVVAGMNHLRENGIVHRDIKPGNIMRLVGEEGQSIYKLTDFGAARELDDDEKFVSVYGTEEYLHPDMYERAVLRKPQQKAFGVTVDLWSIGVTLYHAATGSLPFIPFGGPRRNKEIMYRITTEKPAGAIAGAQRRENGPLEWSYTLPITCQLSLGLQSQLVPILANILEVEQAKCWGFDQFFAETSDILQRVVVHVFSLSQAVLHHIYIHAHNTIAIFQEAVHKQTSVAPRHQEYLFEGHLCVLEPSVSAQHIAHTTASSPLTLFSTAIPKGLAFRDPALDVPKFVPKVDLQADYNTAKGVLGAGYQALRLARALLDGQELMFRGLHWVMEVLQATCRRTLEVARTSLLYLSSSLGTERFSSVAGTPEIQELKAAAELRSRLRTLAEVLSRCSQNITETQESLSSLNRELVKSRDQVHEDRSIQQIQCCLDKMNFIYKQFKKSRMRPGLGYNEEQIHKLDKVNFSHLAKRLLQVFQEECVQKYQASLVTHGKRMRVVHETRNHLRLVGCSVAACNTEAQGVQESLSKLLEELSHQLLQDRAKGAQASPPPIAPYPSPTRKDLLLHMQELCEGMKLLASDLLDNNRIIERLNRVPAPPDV

[4] = biological target: Dual specificity mitogen-activated protein kinase kinase 2 (Homo sapiens, UniProt P36507)
Sequence of Dual specificity mitogen-activated protein kinase kinase 2 (P36507 whole entry): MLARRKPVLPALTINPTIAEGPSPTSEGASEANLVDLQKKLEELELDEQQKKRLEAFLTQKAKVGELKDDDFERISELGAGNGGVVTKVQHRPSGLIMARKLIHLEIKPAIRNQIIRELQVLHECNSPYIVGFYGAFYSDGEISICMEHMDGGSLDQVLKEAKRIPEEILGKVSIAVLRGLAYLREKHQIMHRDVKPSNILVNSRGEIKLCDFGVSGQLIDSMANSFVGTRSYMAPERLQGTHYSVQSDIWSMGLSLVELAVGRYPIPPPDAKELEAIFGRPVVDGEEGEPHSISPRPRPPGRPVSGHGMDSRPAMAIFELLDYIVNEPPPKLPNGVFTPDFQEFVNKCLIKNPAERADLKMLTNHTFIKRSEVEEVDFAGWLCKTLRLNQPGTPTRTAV

[5] = biological target: T2, Dynamin-like GTPase OPA1, mitochondrial (Homo sapiens, UniProt O60313)
T2 sequence (O60313 whole entry): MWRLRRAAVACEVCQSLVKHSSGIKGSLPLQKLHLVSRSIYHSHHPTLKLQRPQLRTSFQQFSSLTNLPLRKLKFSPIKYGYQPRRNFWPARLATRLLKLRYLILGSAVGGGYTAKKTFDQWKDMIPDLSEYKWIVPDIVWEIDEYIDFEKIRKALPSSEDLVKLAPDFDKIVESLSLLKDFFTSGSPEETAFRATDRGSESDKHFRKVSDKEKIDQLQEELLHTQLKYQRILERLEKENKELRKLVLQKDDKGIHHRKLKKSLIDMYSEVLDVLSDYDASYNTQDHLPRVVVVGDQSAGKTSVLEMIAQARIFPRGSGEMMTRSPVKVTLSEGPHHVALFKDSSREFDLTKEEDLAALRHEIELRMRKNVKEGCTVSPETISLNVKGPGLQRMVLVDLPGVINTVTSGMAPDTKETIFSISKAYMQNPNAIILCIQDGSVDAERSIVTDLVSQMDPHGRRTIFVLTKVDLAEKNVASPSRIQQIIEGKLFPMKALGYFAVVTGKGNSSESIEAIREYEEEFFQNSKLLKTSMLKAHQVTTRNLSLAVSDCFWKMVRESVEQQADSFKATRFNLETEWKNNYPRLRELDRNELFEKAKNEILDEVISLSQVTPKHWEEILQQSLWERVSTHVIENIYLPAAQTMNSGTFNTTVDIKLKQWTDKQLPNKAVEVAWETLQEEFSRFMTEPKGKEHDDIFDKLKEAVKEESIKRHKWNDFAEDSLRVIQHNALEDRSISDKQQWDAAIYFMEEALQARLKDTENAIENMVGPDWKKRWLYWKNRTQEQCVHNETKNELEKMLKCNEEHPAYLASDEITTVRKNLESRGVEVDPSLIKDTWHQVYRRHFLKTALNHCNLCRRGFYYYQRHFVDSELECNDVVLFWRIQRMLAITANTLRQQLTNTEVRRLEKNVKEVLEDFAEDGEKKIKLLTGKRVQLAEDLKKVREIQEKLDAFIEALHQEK

[6] = biological target: T3, Serine/threonine-protein kinase TAO1 (Homo sapiens, UniProt Q7L7X3)
T3 sequence (Q7L7X3 whole entry): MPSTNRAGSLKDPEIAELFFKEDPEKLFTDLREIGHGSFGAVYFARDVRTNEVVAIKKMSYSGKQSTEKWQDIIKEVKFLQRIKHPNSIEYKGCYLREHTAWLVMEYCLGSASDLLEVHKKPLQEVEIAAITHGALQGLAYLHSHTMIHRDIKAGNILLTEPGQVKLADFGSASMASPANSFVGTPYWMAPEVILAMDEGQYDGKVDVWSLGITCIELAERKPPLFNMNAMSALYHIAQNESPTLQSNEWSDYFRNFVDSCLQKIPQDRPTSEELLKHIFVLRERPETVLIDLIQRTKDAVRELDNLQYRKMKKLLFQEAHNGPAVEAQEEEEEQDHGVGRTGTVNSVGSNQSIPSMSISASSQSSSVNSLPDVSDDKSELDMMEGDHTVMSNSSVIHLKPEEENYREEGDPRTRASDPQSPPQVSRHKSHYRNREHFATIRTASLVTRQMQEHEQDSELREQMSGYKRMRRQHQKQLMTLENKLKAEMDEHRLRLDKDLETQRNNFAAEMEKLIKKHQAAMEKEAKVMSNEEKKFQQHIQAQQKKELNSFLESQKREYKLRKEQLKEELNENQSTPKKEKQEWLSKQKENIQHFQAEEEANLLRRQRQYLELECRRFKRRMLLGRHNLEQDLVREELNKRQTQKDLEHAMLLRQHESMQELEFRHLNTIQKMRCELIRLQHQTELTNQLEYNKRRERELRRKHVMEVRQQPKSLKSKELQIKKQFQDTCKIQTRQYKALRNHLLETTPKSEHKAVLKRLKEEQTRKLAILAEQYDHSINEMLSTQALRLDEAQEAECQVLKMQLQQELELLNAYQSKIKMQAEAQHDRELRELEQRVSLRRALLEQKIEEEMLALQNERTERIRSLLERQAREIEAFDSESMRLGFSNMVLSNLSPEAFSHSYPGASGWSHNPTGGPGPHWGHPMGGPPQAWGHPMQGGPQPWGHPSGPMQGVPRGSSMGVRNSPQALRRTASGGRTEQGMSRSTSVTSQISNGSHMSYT

Sequence of Bone morphogenetic protein receptor type-1B (O00238 whole entry): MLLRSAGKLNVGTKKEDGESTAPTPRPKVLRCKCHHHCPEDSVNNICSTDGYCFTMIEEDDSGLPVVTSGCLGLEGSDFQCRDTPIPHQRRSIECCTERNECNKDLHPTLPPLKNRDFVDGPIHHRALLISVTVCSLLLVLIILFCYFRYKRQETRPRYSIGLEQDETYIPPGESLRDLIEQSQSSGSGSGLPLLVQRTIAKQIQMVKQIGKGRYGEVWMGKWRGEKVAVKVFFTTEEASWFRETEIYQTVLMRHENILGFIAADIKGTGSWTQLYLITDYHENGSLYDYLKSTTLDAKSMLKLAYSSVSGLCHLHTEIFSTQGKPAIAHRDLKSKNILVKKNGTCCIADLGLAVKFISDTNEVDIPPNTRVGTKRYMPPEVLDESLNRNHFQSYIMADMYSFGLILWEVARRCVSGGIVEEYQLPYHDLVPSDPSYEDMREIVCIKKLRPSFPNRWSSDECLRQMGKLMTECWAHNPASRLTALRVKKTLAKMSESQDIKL

Row | Kd [1] | Kd [2] | Kd [3] | Kd [4] | Kd [5] | Kd [6] | Compound
1 | > 30 µM (inactive) | > 30 µM (inactive) | > 30 µM (inactive) | > 30 µM (inactive) | > 30 µM (inactive) | > 30 µM (inactive) | Cn1ncc(Cl)c1-c1cc(C(=O)N[C@H](CN)Cc2ccc(F)c(F)c2)oc1Cl [UPROSERTIB]
2 | > 30 µM (inactive) | > 30 µM (inactive) | > 30 µM (inactive) | > 30 µM (inactive) | > 30 µM (inactive) | 2.03 µM (active) | C[C@@H](N)c1ccc(C(=O)Nc2ccnc3[nH]ccc23)cc1 [Y-39983]
3 | > 30 µM (inactive) | > 30 µM (inactive) | > 30 µM (inactive) | > 30 µM (inactive) | > 30 µM (inactive) | 2.14 µM | CN1C/C=C/CCOc2cccc(c2)-c2ccnc(n2)Nc2cccc(c2)C1 [ZOTIRACICLIB]

Row | Compound | Kd [1] | Kd [2] | Kd [3] | Kd [4] | Kd [5] | Kd [6]
4 | Cc1cc(Nc2ncnc3ccc(NC4=NC(C)(C)CO4)cc23)ccc1Oc1ccn2ncnc2c1 [TUCATINIB] | > 30 µM (inactive) | > 30 µM (inactive) | > 30 µM (inactive) | > 30 µM (inactive) | > 30 µM (inactive) | > 30 µM (inactive)
